Experimental data: publication PMC5816668, “Insights into the inhibitory mechanisms of NADH on the αγ heterodimer of human NAD-dependent isocitrate dehydrogenase” (Scientific Reports, 2018)
Where two headings read alike, the source gives them in different places.

How the values were obtained:
[1] = target: T1, α2βγ heterotetramer of human NAD-IDH (Homo sapiens, UniProt P50213+P51553); experiment: NADH formation at […] nm; type: biochemical; details: 33 mM Tris-acetate pH 7.4, 2 mM MnCl2, 20 mM DL-isocitrate, 1 mM NAD+, 25 °C
T1 construct: gene IDH3A; alpha 37 kDa, beta 39 kDa, gamma 39 kDa
T1 sequence (O43837 35-385 partner, one chain of several): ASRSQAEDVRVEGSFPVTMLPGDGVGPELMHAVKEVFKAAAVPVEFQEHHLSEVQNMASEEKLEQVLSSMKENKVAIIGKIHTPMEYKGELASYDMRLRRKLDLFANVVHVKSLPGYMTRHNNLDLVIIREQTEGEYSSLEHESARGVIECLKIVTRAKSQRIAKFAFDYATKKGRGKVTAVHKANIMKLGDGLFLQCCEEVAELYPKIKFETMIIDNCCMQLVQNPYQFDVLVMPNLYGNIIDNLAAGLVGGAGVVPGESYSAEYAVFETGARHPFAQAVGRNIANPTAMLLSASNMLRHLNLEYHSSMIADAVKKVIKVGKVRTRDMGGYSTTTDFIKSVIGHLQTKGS

[2] = target: T2, αγ heterodimer of human NAD-IDH (Homo sapiens, UniProt P50213+P51553); experiment: NADH formation at […] nm; type: biochemical
T2 construct: gene IDH3A; E. coli BL21(DE3) Codon-Plus co-expression from pQlinkN-α-γ-tev-His6; C-terminal His6 of gamma cut with TEV protease; alpha 37 kDa, gamma 39 kDa; heterodimer
T2 sequence (P50213 28-366): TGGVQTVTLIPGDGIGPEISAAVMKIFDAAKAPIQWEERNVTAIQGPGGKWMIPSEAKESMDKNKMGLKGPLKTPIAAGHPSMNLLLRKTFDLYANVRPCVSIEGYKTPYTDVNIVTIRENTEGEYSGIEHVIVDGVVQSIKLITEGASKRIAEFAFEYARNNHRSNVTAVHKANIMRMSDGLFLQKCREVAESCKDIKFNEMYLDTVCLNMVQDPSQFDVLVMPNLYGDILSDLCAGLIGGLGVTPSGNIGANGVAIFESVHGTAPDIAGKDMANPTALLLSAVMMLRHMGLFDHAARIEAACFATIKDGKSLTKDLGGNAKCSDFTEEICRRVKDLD
T2 sequence (P51553 40-393): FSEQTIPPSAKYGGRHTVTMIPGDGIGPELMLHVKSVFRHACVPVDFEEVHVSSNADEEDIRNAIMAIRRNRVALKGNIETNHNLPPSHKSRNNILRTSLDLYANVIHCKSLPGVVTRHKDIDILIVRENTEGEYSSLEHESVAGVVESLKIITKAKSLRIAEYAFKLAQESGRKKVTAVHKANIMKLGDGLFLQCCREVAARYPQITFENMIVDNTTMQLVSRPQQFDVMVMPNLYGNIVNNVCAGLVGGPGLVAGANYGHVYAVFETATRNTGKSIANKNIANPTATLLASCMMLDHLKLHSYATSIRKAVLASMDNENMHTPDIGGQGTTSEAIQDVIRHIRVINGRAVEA

[3] = target: T3, αβ heterodimer of human NAD-IDH (Homo sapiens, UniProt P50213); experiment: NADH formation at […] nm; type: biochemical; details: 33 mM Tris-acetate pH 7.4, 20 mM DL-isocitrate, 1 mM NAD+, 25 °C
T3 construct: gene IDH3A; alpha 37 kDa, beta 39 kDa; heterodimer
T3 sequence (O43837 35-385 partner, one chain of several): as the sequence (O43837 35-385 partner, one chain of several) above

[4] = target: T3, αβ heterodimer of human NAD-IDH; experiment: ITC; type: binding; details: 50 mM HEPES pH 7.4, 200 mM NaCl, 20 °C, read-out: K d (μ M) ^a
Text: ITC on αβ heterodimer of human NAD-IDH

[5] = target: T1, α2βγ heterotetramer of human NAD-IDH; experiment: ITC; type: binding; details: 50 mM HEPES pH 7.4, 200 mM NaCl, 20 °C; single set of sites fit, n 2.53; read-out: K d (μ M) ^a
Text: ITC on α2βγ heterotetramer of human NAD-IDH

[6] = target: T2, αγ heterodimer of human NAD-IDH; experiment: ITC; type: binding; details: read-out: K d (μ M) ^a
Text: ITC on αγ heterodimer of human NAD-IDH

| IC50 [1] | IC50 [2] | IC50 [3] | Kd ([4]; single set of sites fit, n 1.26) | Kd [5] | Kd [6] | Kd ([4]; no isocitrate, n 1.14) | SMILES |
| --- | --- | --- | --- | --- | --- | --- | --- |
| 78.5 ± 5.4 µM | 82.7 ± 6 µM | 94.9 ± 7.8 µM | 4.6 ± 0.7 µM | 46.3 ± 6.5 µM | 109 ± 19.5 µM | – | NC(=O)C1=CN([C@@H]2O[C@H](COP(=O)(O)OP(=O)(O)OC[C@H]3O[C@@H](n4cnc5c(N)ncnc54)[C@H](O)[C@@H]3O)[C@@H](O)[C@H]2O)C=CC1 [NADH] |
| – | – | – | – | – | – | 268 ± 28.4 µM | NC(=O)c1ccc[n+]([C@@H]2O[C@H](COP(=O)(O)OP(=O)(O)OC[C@H]3O[C@@H](n4cnc5c(N)ncnc54)[C@H](O)[C@@H]3O)[C@@H](O)[C@H]2O)c1 [NAD^+] |
